According to US9949475B2, “Composition comprising active ingredient, oil and ionic liquid” (priority 2011, dated 2018):
Converted amounts (≈) assume the structure as drawn. Like-named read-outs stand apart in the source and are kept apart here.

Assay: Solubility of UV absorber in oil comprising ionic liquid
Type: physicochemical
Conditions: for solubility: 21 °C, thermodynamic from solid, read-out: Solubility of Tinosorb ® S with Cetiol ® B as oil; for Solubility of Uvinul ® T150 with Cetiol ® B as oil: 21° C.
Protocol: For this, increasing amounts of active ingredient were added stepwise to oil (Cetiol® B or Solvesso®), which comprised the ionic liquid, until the maximum solubility was reached. Alternatively, the oil, which comprised the ionic liquid, was saturated with the active ingredient and the soluble fraction of active ingredient was quantified by means of HPLC.

CCCCC(CC)COc1ccc(-c2nc(-c3ccc(OC)cc3)nc(-c3ccc(OCC(CC)CCCC)cc3O)n2)c(O)c1 (centres unmarked) [Tinosorb ® S, bis-ethylhexyloxyphenol methoxyphenyl triazine]
solubility (neat ionic liquid (no oil), organic solvent or mixture, 100 IL (no oil), IL N-butyl-N′-methylimidazolium acetate): 1 mg/mL (≈ 1590 µM) | solubility (neat ionic liquid (no oil), organic solvent or mixture, 100 IL (no oil), IL N-ethyl-N′-ethylimidazolium heptanoate): 1 mg/mL (≈ 1590 µM) | solubility (neat ionic liquid (no oil), organic solvent or mixture, 100 IL (no oil), IL N-ethyl-N′-ethylimidazolium octanoate): 1 mg/mL (≈ 1590 µM) | solubility (neat ionic liquid (no oil), organic solvent or mixture, 100 IL (no oil), IL N-ethyl-N′-methylimidazolium isononanoate): 9.5 mg/mL (≈ 15100 µM) | solubility (neat oil (no ionic liquid), oil or lipid, 100 Oil (Cetiol B, no IL)): 6.2 mg/mL (≈ 9880 µM) | solubility (oil/ionic liquid mixture, oil or lipid, Oil/IL 20/80 weight ratio, IL N-butyl-N′-methylimidazolium acetate): 12.4 mg/mL | solubility (oil/ionic liquid mixture, oil or lipid, Oil/IL 20/80 weight ratio, IL N-ethyl-N′-ethylimidazolium octanoate): 16.7 mg/mL | solubility (oil/ionic liquid mixture, oil or lipid, Oil/IL 20/80 weight ratio, IL N-ethyl-N′-methylimidazolium isononanoate): 19.2 mg/mL | solubility (oil/ionic liquid mixture, oil or lipid, Oil/IL 60/40 weight ratio, IL N-butyl-N′-methylimidazolium acetate): 14.3 mg/mL | solubility (oil/ionic liquid mixture, oil or lipid, Oil/IL 60/40 weight ratio, IL N-ethyl-N′-ethylimidazolium heptanoate): 21.9 mg/mL | solubility (oil/ionic liquid mixture, oil or lipid, Oil/IL 60/40 weight ratio, IL N-ethyl-N′-ethylimidazolium octanoate): 21.9 mg/mL | solubility (oil/ionic liquid mixture, oil or lipid, Oil/IL 60/40 weight ratio, IL N-ethyl-N′-methylimidazolium isononanoate): 22.4 mg/mL | solubility (oil/ionic liquid mixture, oil or lipid, Oil/IL 90/10 weight ratio, IL N-butyl-N′-methylimidazolium acetate): 11.7 mg/mL | solubility (oil/ionic liquid mixture, oil or lipid, Oil/IL 90/10 weight ratio, IL N-ethyl-N′-ethylimidazolium heptanoate): 13 mg/mL | solubility (oil/ionic liquid mixture, oil or lipid, Oil/IL 90/10 weight ratio, IL N-ethyl-N′-ethylimidazolium octanoate): 13 mg/mL | solubility (oil/ionic liquid mixture, oil or lipid, Oil/IL 90/10 weight ratio, IL N-ethyl-N′-methylimidazolium isononanoate): 13.8 mg/mL

CCCCC(CC)COC(=O)c1ccc(Nc2nc(Nc3ccc(C(=O)OCC(CC)CCCC)cc3)nc(Nc3ccc(C(=O)OCC(CC)CCCC)cc3)n2)cc1 (centres unmarked) [Uvinul ® T150, 2,4,6-trianilino-p-(carbo-2′-ethylhexyl-1′-oxy)-1,3,5-triazine]
Solubility of Uvinul ® T150 with Cetiol ® B as oil (100 IL (no oil), IL Cholinium [2-(2-methoxyethoxy)ethoxy]acetate): 1 mg/mL | Solubility of Uvinul ® T150 with Cetiol ® B as oil (100 IL (no oil), IL N-butyl-N′-methylimidazolium acetate): 5 mg/mL | Solubility of Uvinul ® T150 with Cetiol ® B as oil (100 IL (no oil), IL N-ethyl-N′-ethylimidazolium propionate): 5 mg/mL | Solubility of Uvinul ® T150 with Cetiol ® B as oil (100 IL (no oil), IL N-ethyl-N′-methylimidazolium acetate): 1 mg/mL | Solubility of Uvinul ® T150 with Cetiol ® B as oil (100 IL (no oil), IL N-ethyl-N′-methylimidazolium isononanoate): 1 mg/mL | Solubility of Uvinul ® T150 with Cetiol ® B as oil (100 Oil (Cetiol B, no IL)): 14.2 mg/mL | Solubility of Uvinul ® T150 with Cetiol ® B as oil (Oil/IL 20/80 weight ratio, IL N-butyl-N′-methylimidazolium acetate): 41.5 mg/mL | Solubility of Uvinul ® T150 with Cetiol ® B as oil (Oil/IL 20/80 weight ratio, IL N-ethyl-N′-ethylimidazolium propionate): 44.1 mg/mL | Solubility of Uvinul ® T150 with Cetiol ® B as oil (Oil/IL 20/80 weight ratio, IL N-ethyl-N′-methylimidazolium acetate): 40.8 mg/mL | Solubility of Uvinul ® T150 with Cetiol ® B as oil (Oil/IL 20/80 weight ratio, IL N-ethyl-N′-methylimidazolium isononanoate): 34.8 mg/mL | Solubility of Uvinul ® T150 with Cetiol ® B as oil (Oil/IL 60/40 weight ratio, IL N-butyl-N′-methylimidazolium acetate): 54.1 mg/mL | Solubility of Uvinul ® T150 with Cetiol ® B as oil (Oil/IL 60/40 weight ratio, IL N-ethyl-N′-ethylimidazolium propionate): 54.3 mg/mL | Solubility of Uvinul ® T150 with Cetiol ® B as oil (Oil/IL 60/40 weight ratio, IL N-ethyl-N′-methylimidazolium acetate): 52.8 mg/mL | Solubility of Uvinul ® T150 with Cetiol ® B as oil (Oil/IL 60/40 weight ratio, IL N-ethyl-N′-methylimidazolium isononanoate): 45.7 mg/mL | Solubility of Uvinul ® T150 with Cetiol ® B as oil (Oil/IL 90/10 weight ratio, IL Cholinium [2-(2-methoxyethoxy)ethoxy]acetate): 21.3 mg/mL | Solubility of Uvinul ® T150 with Cetiol ® B as oil (Oil/IL 90/10 weight ratio, IL N-butyl-N′-methylimidazolium acetate): 37.5 mg/mL | Solubility of Uvinul ® T150 with Cetiol ® B as oil (Oil/IL 90/10 weight ratio, IL N-ethyl-N′-ethylimidazolium propionate): 33.3 mg/mL | Solubility of Uvinul ® T150 with Cetiol ® B as oil (Oil/IL 90/10 weight ratio, IL N-ethyl-N′-methylimidazolium acetate): 37.5 mg/mL | Solubility of Uvinul ® T150 with Cetiol ® B as oil (Oil/IL 90/10 weight ratio, IL N-ethyl-N′-methylimidazolium isononanoate): 32.4 mg/mL
